pIC50: −log10 of the molar value. Read-outs that look alike come from different tables or passages of the source.
What was measured:
[1] = system: primary mouse spleen lymphocytes; experiment: Alamar blue assay of lymphocyte growth; type: cell-based; conditions: for pIC50: Lymphocyte
Method: IC50 values were derived from growth inhibition curves. Data for tumor cells are a mean of five to seven experiments. Data for primary cells are a mean of three experiments. […] Inhibition of cell growth was calculated using the formula: growth inhibition (%)=(1−A570 of treated/A570 of control)×100. IC50 (the concentration that inhibited cell growth by 50%) values were also determined. For evaluation of lymphocyte growth in suspension, an Alamar blue assay was performed, wherein freshly prepared mouse spleen lymphocytes were stimulated for 72 H with 2 ug/mL concanavalin A (Sigma Chemicals, St. Louis, […].). During the last 24 H, 20 μl/well of Alamar blue (Invitrogen, Carlsbad, Calif.) was added. The fluorescence intensity was measured at 530/580 (excitation/emission) in the FLUOstar Omega microplate reader (BMG LABTECH, Cary, N.C.).
The effects of PCNA-I1 on growth of tumor cells versus primary cells was also investigated. Specifically, the effects of PCNA-1I on the growth of primary cells was investigated using primary culture of mouse lymphocytes. An Alamar blue assay was performed with PC-3 cells as a positive control. Freshly prepared mouse spleen lymphocytes were stimulated for 72 H with 2 μg/mL of concanavalin A. During the last 24 H, 20 μL/well of alamar blue was added. The fluorescence intensity was measured at 530/580 (excitation/emission).

[2] = system: PC-3 cells; experiment: Cell growth after single 24 H pre-treatment (Alamar blue); type: cell-based, Human; conditions: 0.5 μM for 24 H, washed, Alamar blue up to 144 H; FIG. 1
Source text: The necessity of a continuous presence of PCNA-I1 for cell growth was also investigated.

[3] = system: primary mouse bone marrow stromal cells; experiment: Growth inhibition, mouse bone marrow stromal cells; type: cell-based; conditions: normal cells, read-out: IC50 Values, Bone Marrow Stroma Cells
Method: (§1) Growth inhibitory effects of PCNA-I1 and PCNA-I2 were assessed in human cancer cell lines, mouse cancer cell lines, immortalized mouse cell lines, and human primary cell lines. Specifically, growth inhibitory effects of PCNA-I1 and PCNA-I2 were assessed using MTT staining in the following cells lines: 1) human cancer cell lines including LNCaP (androgen receptor […]), 22Rv1, DU-145, LAPC-4, and PC-3 (androgen receptor […]) prostate cancer cells; MCF-7 and T47D breast cancer cells; A375 and MDA-MB435 melanoma cells; 2) mouse cancer cell lines including TRAMP-C2RE3 prostate cancer cells, B16 and K1735 melanoma cells, UV2237 fibrosarcoma cells, and CT-26 colon cancer cells; 3) immortalized mouse lung cell lines and mouse endothelial cell lines; and 4) primary human cell lines including umbilical endothelial cells (HUVEC, PromoCell, Heidelberg, Germany), primary bone marrow mesenchymal stem cells (HuMSC, PromoCell), primary human mammary epithelial cells (HuBrEC, Lonza, Walkersville, Md.), primary human prostate epithelial cells (HuPrEC, Lonza), and primary mouse spleen lymphocytes (isolated in this laboratory), and primary mouse bone marrow stromal cells (isolated in this laboratory). […]
(§2) IC50 values were derived from growth inhibition curves. […] Inhibition of cell growth was calculated using the formula: growth inhibition (%)=(1−A570 of treated/A570 of control)×100. […]

[4] = system: CT26-R500 murine colon cancer cell line; experiment: Growth inhibition by MTT staining, CT26-R500; type: cell-based; conditions: Mouse tumor cells; cell line not given; read-out: IC50 Values, cell line cell blank (third row below UV2237)
Method: as §1, §2

[5] = system: 22Rv1 cells; experiment: 22Rv1 tumor model in male nude mice; type: in vivo; conditions: 10 mg/kg i.p., three times/week
Method: The therapeutic effects of PCNA-I1 were evaluated in LNCaP cells and 22Rv1 tumor models. LNCaP or 22Rv1 cells (1-2×10^6 cells in gelfoam) were implanted into the subcutis of male nude mice. From four to five days later, tumor-bearing mice were intraperitoneally injected with 10 mg/kg or 50 mg/kg of PCNA-I1. The therapy was continued at three times/week until termination of experiments. Control and treated tumor-bearing mice were monitored daily. Mouse body weight was recorded for toxicity evaluation twice a week and tumor size was measured using calipers twice a week. The experiments were terminated when mice in control groups were moribund. Additionally, to further evaluate potential liver and renal toxicity of PCNA-I1, the blood of tumor-bearing mice were sampled after the treatment with PCNA-I1 for 8 weeks.

[6] = biological target: T1, p21Waf1/Cip1 and PCNA (Homo sapiens, UniProt P12004); experiment: Association of p21Waf1/Cip1 to PCNA (immunoprecipitation); type: cell-based; conditions: Pc-3 and LNCaP, 0.5 μM, 8 H; FIG. 13
T1 construct: endogenous in cells; host or cells: PC-3, LNCaP
Method: Chromatin-associated trimeric PCNA executes its function through numerous partner proteins, including p21Waf1/Cip1. To validate that treatment with PCNA-I1 reduces function of PCNA, the binding of p21Waf1/Cip1 to PCNA was investigated. Specifically, Pc-3 and LNCaP cells were treated with PCNA-I1 (0.5 μM) for 8 H and lysed in buffer B as previously discussed. Chromatin-associated protein was extracted in buffer D containing 0.42 M NaCl. The chromatin-associated protein was precipitated with the antibody to PCNA, and was resolved in SDS-PAGE, and probed with antibodies to p21Waf1/Cip1 and PCNA.

[7] = system: T47D breast cancer cells; experiment: Growth inhibition by MTT staining, T47D; type: cell-based; conditions: 96 h, Human tumor cells, treated four days
Method: as §1, §2

[8] = system: B16 melanoma cells; experiment: Growth inhibition by MTT staining, B16; type: cell-based; conditions: B16, 96 h, Mouse, treated four days
Method: as §1, §2

[9] = system: MDA-MB435 melanoma cells; experiment: Growth inhibition by MTT staining, MDA-MB435; type: cell-based; conditions: MDA-MB-435, 96 h, Human, treated four days
Method: as §1, §2

T1 sequence (P12004 whole entry): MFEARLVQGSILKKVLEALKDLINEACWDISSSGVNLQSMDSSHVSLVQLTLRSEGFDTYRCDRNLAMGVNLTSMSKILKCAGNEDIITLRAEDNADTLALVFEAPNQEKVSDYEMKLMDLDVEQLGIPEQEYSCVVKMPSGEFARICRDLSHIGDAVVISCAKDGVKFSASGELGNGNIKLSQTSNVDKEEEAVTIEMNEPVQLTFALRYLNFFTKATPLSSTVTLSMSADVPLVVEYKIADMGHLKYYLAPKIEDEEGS

In the case of `Cc1ccsc1C(=O)N/N=C/c1ccc2ccccc2c1O` [PCNA-I1], the pIC50 ([1]; FIG. 2(B), Alamar blue assay, mouse spleen lymphocytes, read-out: IC50, lymphocytes) was 5.82, the pIC50 ([1]; Mouse, normal cells, Alamar blue, read-out: IC50 Values, Spleen Lymphocytes) was 5.82 and the “Lymphocyte growth at low concentrations” value ([1]; with or without concanavalin A) was “promoted lymphocyte growth at concentrations below the cytotoxic or cytostatic doses”. The “Duration of growth inhibition after single one-day pre-treatment” value [2] was “sufficient to inhibit cell growth for up to seven days”, the pIC50 [3] was 5.72 and the pIC50 [4] was 7.15. The “Tumor growth, 22Rv1 model” value [5] was “retarded tumor growth”, the “Level of chromatin-associated PCNA and p21Waf1/Cip1” value [6] was “reduced the level of PCNA and p21Waf1/Cip1” and the pIC50 [7] was 6.82. For the same compound, the pIC50 [8] was 6.46 and the pIC50 [9] was 6.54.
